Assay results: ChEMBL document CHEMBL5233278, “Recent Advances in the Medicinal Chemistry of Farnesoid X Receptor” (J Med Chem, 2021)

Assays:
[1] = target: Voltage-gated inwardly rectifying potassium channel KCNH2 (Homo sapiens, UniProt Q12809); experiment: Inhibition of hERG; type: toxicity
Bile acid receptor [2] = target: T1, Bile acid receptor (Homo sapiens, UniProt Q96RI1); experiment: Agonist activity at human FXR in expressed in CHO cells by luciferase reporter assay; type: cell-based
T1 sequence (Q96RI1 whole entry): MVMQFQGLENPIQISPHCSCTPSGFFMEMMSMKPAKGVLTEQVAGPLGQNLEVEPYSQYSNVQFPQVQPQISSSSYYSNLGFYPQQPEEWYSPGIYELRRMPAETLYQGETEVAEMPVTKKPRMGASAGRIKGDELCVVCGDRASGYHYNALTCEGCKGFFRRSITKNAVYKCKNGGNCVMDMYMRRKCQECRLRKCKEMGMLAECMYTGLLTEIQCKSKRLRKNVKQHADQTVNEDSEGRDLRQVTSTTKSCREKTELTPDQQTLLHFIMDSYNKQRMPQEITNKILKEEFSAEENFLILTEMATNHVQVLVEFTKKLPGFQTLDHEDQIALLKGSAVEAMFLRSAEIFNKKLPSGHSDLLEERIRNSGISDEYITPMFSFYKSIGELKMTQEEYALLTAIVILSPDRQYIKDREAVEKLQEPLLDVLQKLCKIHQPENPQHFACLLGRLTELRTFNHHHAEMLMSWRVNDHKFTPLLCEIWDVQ

[3] = Cmax in Sprague-Dawley rat liver at 5 mg/kg, po measured up to 24 hrs by LC-MS-MS analysis; type: ADME, organism-based; parameters: time < 24 hrs, dose 5 mg/kg, route po
[4] = Cmax in Sprague-Dawley rat serum at 5 mg/kg, po measured up to 24 hrs by LC-MS-MS analysis; type: ADME, organism-based; parameters: dose 5 mg/kg, time < 24 hrs, route po
[5] = AUC(0 to 24 hrs) in Sprague-Dawley rat serum at 1 mg/kg, iv measured up to 24 hrs by LC-MS-MS analysis; type: ADME, organism-based; parameters: dose 1 mg/kg, time < 24 hrs, route iv
[6] = Cmax in Sprague-Dawley rat serum at 1 mg/kg, iv measured up to 24 hrs by LC-MS-MS analysis; type: ADME, organism-based; parameters: time < 24 hrs, dose 1 mg/kg, route iv
Bile acid receptor [7] = target: T1, Bile acid receptor; experiment: Agonist activity at FXR in HEK293T cells by steady-glo luciferase assay; type: cell-based
[8] = AUC(0 to 24 hrs) in Sprague-Dawley rat serum at 5 mg/kg, po measured up to 24 hrs by LC-MS-MS analysis; type: ADME, organism-based; parameters: dose 5 mg/kg, time < 24 hrs, route po
[9] = target: T2, Bile acid receptor (Homo sapiens) (UniProt Q96RI1); experiment: Agonist activity at FXR in HEK293 cells assessed as maximum efficacy relative to control; type: cell-based; settings: filed as agonist
T2 sequence (whole entry): T1 sequence (Q96RI1 whole entry)

[10] = AUC(0 to 24 hrs) in Sprague-Dawley rat liver at 5 mg/kg, po measured up to 24 hrs by LC-MS-MS analysis; type: ADME, organism-based; parameters: dose 5 mg/kg, time < 24 hrs, route po; settings: in vivo
Bile acid receptor [11] = target: T1, Bile acid receptor; experiment: Agonist activity at FXR in HEK293T cells by lanthascreen TR-FRET assay; type: cell-based
[12] = target: Bile acid receptor (Homo sapiens) (UniProt Q96RI1); experiment: Agonist activity at FXR in human HepG2 cells coexpressing BSEP at 0.3 uM relative to control; settings: filed as agonist
[13] = target: Bile acid receptor (Homo sapiens) (UniProt Q96RI1); experiment: Agonist activity at FXR in human HepG2 cells at 3 uM relative to control; settings: filed as agonist
Bile acid receptor [14] = target: T1, Bile acid receptor; experiment: Agonist activity at FXR in human HeLa cells incubated for 24 hrs by Dual-Glo luciferase assay; type: cell-based; settings: hela
[15] = target: T3, Bifunctional epoxide hydrolase 2 (Homo sapiens, UniProt P34913); experiment: Inhibition of sEH (unknown origin)
T3 sequence (P34913 whole entry): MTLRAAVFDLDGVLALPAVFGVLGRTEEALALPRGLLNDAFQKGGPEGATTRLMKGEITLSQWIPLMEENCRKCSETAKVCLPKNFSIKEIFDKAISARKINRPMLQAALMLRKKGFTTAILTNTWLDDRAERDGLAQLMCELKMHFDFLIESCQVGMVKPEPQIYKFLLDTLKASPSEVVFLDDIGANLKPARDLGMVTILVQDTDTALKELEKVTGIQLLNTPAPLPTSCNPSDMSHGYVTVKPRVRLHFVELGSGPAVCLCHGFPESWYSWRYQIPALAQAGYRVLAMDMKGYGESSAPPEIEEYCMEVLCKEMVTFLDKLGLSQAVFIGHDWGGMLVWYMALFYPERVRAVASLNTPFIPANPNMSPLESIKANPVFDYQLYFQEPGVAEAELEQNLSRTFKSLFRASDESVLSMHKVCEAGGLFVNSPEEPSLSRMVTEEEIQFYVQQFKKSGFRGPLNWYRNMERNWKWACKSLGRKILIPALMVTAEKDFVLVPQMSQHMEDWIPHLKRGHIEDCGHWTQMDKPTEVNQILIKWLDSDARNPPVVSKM

Bile acid receptor [16] = target: T1, Bile acid receptor; experiment: Agonist activity at human FXR incubated for 24 hrs by luciferase reporter assay
Bile acid receptor [17] = target: T1, Bile acid receptor; experiment: Agonist activity at FXR in HEK293T cells incubated for 24 hrs by Steady-Glo luciferase assay; type: cell-based
Bile acid receptor [18] = target: T1, Bile acid receptor; experiment: Agonist activity at human GST-tagged FXR incubated for 1 hrs by alphascreen assay
Bile acid receptor [19] = target: T1, Bile acid receptor; experiment: Agonist activity at FXR (unknown origin)
Bile acid receptor [20] = target: T1, Bile acid receptor; experiment: Agonist activity at FXR in human HeLa cells by Dual-Glo luciferase assay; type: cell-based
Bile acid receptor [21] = target: T1, Bile acid receptor; experiment: Agonist activity at FXR (unknown origin) incubated for 180 mins by TR-FRET assay
[22] = Stability in human plasma assessed as half life; type: ADME, cell-free
Bile acid receptor [23] = target: T1, Bile acid receptor; experiment: Agonist activity at human FXR
Mus musculus [24] = experiment: Anti-NASH activity in nonalcoholic steatohepatitis C57BL/6 mouse model assessed as decrease in level of serum AST 10 mg/kg, iv relative to control; type: functional; parameters: scale not given: the % may be the effect or the level left
Mus musculus [25] = experiment: Anti-NASH activity in nonalcoholic steatohepatitis C57BL/6 mouse model assessed as decrease in level of serum ALT 10 mg/kg, iv relative to control; type: functional; parameters: scale not given: the % may be the effect or the level left

Sequence of Voltage-gated inwardly rectifying potassium channel KCNH2 (Q12809 whole entry): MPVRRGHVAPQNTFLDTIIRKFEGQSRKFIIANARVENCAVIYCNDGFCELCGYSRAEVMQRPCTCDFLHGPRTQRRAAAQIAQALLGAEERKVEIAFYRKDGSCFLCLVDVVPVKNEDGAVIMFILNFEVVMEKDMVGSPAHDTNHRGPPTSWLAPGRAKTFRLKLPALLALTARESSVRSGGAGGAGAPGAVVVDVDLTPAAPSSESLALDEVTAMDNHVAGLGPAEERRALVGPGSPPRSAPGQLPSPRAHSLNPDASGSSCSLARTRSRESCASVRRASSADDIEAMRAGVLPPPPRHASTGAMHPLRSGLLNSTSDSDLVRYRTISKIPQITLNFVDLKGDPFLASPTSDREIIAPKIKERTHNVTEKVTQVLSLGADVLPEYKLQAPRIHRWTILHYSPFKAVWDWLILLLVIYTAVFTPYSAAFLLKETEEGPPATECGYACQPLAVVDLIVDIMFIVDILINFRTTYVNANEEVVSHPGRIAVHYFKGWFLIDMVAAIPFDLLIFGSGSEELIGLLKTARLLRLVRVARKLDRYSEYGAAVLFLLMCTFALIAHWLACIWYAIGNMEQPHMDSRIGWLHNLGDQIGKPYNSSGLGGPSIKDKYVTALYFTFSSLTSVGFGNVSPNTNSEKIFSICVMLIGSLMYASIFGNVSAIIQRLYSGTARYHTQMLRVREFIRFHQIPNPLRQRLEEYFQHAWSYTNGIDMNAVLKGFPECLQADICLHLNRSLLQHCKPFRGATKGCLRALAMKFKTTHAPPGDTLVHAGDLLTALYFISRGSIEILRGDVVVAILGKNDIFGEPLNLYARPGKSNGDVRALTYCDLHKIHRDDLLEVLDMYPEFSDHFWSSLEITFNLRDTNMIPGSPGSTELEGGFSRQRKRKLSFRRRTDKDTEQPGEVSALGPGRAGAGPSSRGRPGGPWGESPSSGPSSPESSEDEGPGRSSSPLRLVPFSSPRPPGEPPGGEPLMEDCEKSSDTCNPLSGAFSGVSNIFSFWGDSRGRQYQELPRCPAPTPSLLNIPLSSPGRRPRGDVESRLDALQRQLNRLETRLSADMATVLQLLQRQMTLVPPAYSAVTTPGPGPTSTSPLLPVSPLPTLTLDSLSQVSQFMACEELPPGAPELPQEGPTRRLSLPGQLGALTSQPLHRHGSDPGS

Cc1cc(OCc2c(-c3c(Cl)cccc3Cl)noc2C2CC2)ccc1C1=NOC(c2cccc(C(=O)O)c2)C1 (centres undefined)
IC50 [1]: > 30000 nM

CC[C@H]1[C@@H](O)[C@@H]2[C@H](CC[C@]3(C)[C@@H]([C@H](C)COC(=O)NS(=O)(=O)c4ccc(OC(C)C)cc4)CC[C@@H]23)[C@@]2(C)CC[C@@H](O)C[C@@H]12
EC50 (Bile acid receptor [2]): < 1 nM

O=C(O)c1ccc(-c2csc(N3CCC(OCc4c(-c5c(Cl)cccc5Cl)noc4C4CC4)CC3)n2)cc1
Cmax [3]: 3370 ng/g | Cmax [4]: 252 ng/mL | AUC(0-t) at 24 h [5]: 2410 ng·h/mL | Cmax [6]: 4340 ng/mL | EC50 (Bile acid receptor [7]): 12 nM | AUC(0-t) at 24 h [8]: 1180 ng·h/mL | Emax [9]: 101% | AUC [10]: 14971 ng·h/g

CCc1onc(-c2c(Cl)cccc2Cl)c1COc1ccc(C2(C)CC2c2ccc(C(=O)O)cc2)c(Cl)c1 (centres undefined)
EC50 (Bile acid receptor [11]): < 100 nM

O=C(O)c1ccc([C@@H]2C[C@H]2c2ccc(OCc3c(-c4c(Cl)cccc4Cl)noc3C3CC3)cc2Cl)cc1
Activity [12]: 60% | Activity [13]: 100%

COc1cc(C(=O)O)ccc1Cn1ccc2ccc(NC(=O)c3ccc(C(C)(C)C)cc3)cc21
EC50 (Bile acid receptor [14]): 260 nM | IC50 [15]: 1700 nM

O=S(O)c1cc(F)c2nc(N3[C@@H]4CC[C@H]3C[C@@H](OCc3c(-c5ccccc5OC(F)(F)F)noc3C3CC3)C4)sc2c1
EC50 (Bile acid receptor [7]): < 500 nM

O=C(O)c1cc(F)c2nc(N3C[C@@H]4CC[C@H]3C[C@@H]4OCc3c(-c4ccccc4OC(F)(F)F)noc3C3CC3)sc2c1
Activity [12]: 84% | Activity [13]: 125%

CC[C@H]1[C@@H](O)[C@@H]2[C@H](CC[C@]3(C)[C@@H]([C@H](C)CCNC(=O)NS(=O)(=O)c4ccc(C(C)(C)C)cc4)CC[C@@H]23)[C@@]2(C)CC[C@@H](O)[C@H](F)[C@@H]12
EC50 (Bile acid receptor [16]): 19 nM

CC(C)COc1ccc(-c2nnc(-c3ccc(C(=O)O)cc3)o2)cc1
EC50 (Bile acid receptor [17]): 205 nM

O=C1CCc2cc(OCc3c(-c4c(Cl)cccc4Cl)noc3C3CC3)ccc2N1c1ncc(O)cc1F
EC50 (Bile acid receptor [18]): 9 nM

O=C(O)c1ccc2c(c1)CN(C(=O)N1[C@@H]3CC[C@H]1C[C@@H](OCc1c(-c4c(Cl)cccc4Cl)noc1C1CC1)C3)C2
EC50 (Bile acid receptor [7]): 10 nM

CCn1nc(C(=O)O)cc1C1CC(c2ccc(OCc3c(-c4c(Cl)cccc4Cl)noc3C3CC3)cc2C)=NO1 (centres undefined)
IC50 [1]: > 30000 nM | EC50 (Bile acid receptor [7]): 23 nM

Cc1cc(NS(=O)(=O)N2[C@@H]3CC[C@H]2C[C@@H](OCc2c(-c4c(Cl)cccc4Cl)noc2C2CC2)C3)ccc1C(=O)O
EC50 (Bile acid receptor [19]): < 50 nM

O=C(O)c1cccc(NC(=O)c2ccc(OCc3ccccc3)cc2)c1
EC50 (Bile acid receptor [20]): 9.1 nM

O=C(O)CNC(=O)c1ccc(N2CCC3(CC2)CC(OCc2c(-c4ccccc4OC(F)(F)F)noc2C2CC2)CO3)nc1 (centres undefined)
EC50 (Bile acid receptor [21]): 1.7 nM

Cc1cc(OCc2c(-c3c(Cl)cccc3Cl)noc2C2CC2)ccc1C1=NOC(c2cc(C(=O)O)nn2C)C1 (centres undefined)
IC50 [1]: > 30000 nM | EC50 (Bile acid receptor [7]): 10 nM

Cc1ccc(Cl)cc1N1CCN(C(=O)C23CC4CC(CC(C4)C2)C3)CC1
half-life [22]: > 8.33 h

COc1cccc(-c2ccc(NC(=O)C3=C(C(=O)O)CCC3)c(F)c2)c1 [VIDOFLUDIMUS]
EC50 (Bile acid receptor [19]): 450 nM

CC(C)Oc1cc(C(=O)NS(=O)(=O)N2CCCCC2)cc2sc(O[C@@H]3CO[C@H]4[C@H]3OC[C@H]4OCc3c(-c4c(Cl)cccc4Cl)noc3C3CC3)nc12
EC50 (Bile acid receptor [23]): < 30 nM

CC(C)n1ncc(-c2c(Cl)cccc2Cl)c1COc1ccc(N(C)Cc2cccc(C(=O)O)c2)c(C(F)(F)F)c1
Activity (Mus musculus [24]): 59% | Activity (Mus musculus [25]): 63%
